Measurements: patent US4380512A, “2β-Chloromethyl-2α-methylpenam-3α-carboxylic acid sulfone and salts and esters thereof” (Bristol-Myers Company, priority 1981, dated 1983)
Where two headings read alike, the source gives them in different places.

Key:
[1] = Storage stability; type: physicochemical; conditions: 23° C., seven days
[2] = Hygroscopicity; type: physicochemical; conditions: solid
[3] = tested on: E. coli A9675; test: Therapeutic efficacy of BL-P2043, BL-P2044 and components, oral, infected mice (Table 13); type: in vivo; conditions: Escherichia coli, A9675, po, read-out: PD50/Treatment
[4] = tested on: Citrobacter sp.; test: Antibacterial activity of ceforanide alone and with BL-P2013, MIC (Table 11); type: cell-based; conditions: 1 strain, read-out: MIC
Excerpt: (§1) ^a Geometric mean value where applicable.

[5] = tested on: P. stuartii; test: as above; type: cell-based; conditions: Providencia stuartii
Excerpt: as §1

[6] = tested on: C. freundii; test: as above; type: cell-based; conditions: Citrobacter freundii; 1 strain; read-out: MIC
Excerpt: as §1

[7] = tested on: P. aeruginosa; test: as above; type: cell-based; conditions: Pseudomonas aeruginosa; 16 strains, geometric mean; read-out: MIC
Excerpt: as §1

[8] = tested on: M. morganii; test: as above; type: cell-based; conditions: 8 strains (second line), geometric mean
Excerpt: as §1

[9] = tested on: S. marcescens; test: as above; type: cell-based; conditions: geometric mean
Excerpt: as §1

[10] = tested on: E. aerogenes; test: as above; type: cell-based; conditions: Klebsiella aerogenes, read-out: MIC
Excerpt: as §1

[11] = mouse, in vivo, po, 38 mg/kg
[12] = in vivo; conditions: mouse, po, 38 mg/kg
Excerpt: Compounds were solubilized in propylene glycol, except for the Hetacillin

[13] = Blood levels after oral administration to mice (Table 4); type: in vivo; conditions: 100 mg/kg oral, 15 min, assay S. aureus A-9606
[14] = tested on: B. thetaiotaomicron; test: Anti-Bacteroides activity, MIC by agar dilution (Table 2); type: cell-based; conditions: A22279, beta-lactamase +
Description: *Minimum inhibitory concentration (MIC) determined by the agar dilution
method using 50X dilutions of 24 hour cultures as inocula dispensed by th
Steer's inoculator. Assay medium composed of Brucella Agar plus 5% laked
sheep blood and 10 mcg/ml vitamin K.

[15] = tested on: β-lactamase-producing bacteria; test: Protection of ceforanide and amoxicillin from destruction; conditions: in vitro and in vivo, in combination
[16] = tested on: Bacteroides species; test: Anti-Bacteroides activity, MIC by agar dilution (Table 2); type: cell-based
[17] = in vivo; conditions: mouse, po, 38 mg/kg; remark: listed apart in the source

CC1(CCl)C(C(=O)O)N2C(=O)CC2S1(=O)=O (stereo not drawn) [BL-P2013 Free Acid, 2β-chloromethyl-2α-methylpenam-3α-carboxylic acid sulfone]
stability on storage [1]: unstable when stored at 23 °C for seven days
hygroscopicity [2]: hydroscopic

CC1(CCl)C(C(=O)O)N2C(=O)CC2S1(=O)=O (stereo not drawn) [BL-P2013, Potassium 2β-Chloromethyl-2α-methylpenam-3α-carboxylate Sulfone]
ED50 [3]: > 50 mg/kg
MIC [4]: 16 µg/mL
MIC ([5]; 1 strain): 125 µg/mL
MIC ([5]; 4 strains, geometric mean): 125 µg/mL
MIC [6]: > 125 µg/mL
MIC [7]: 125 µg/mL
MIC [8]: > 125 µg/mL
MIC ([9]; 6 strains): 125 µg/mL
MIC ([9]; Serratia marcescens, 10 strains, read-out: MIC): 125 µg/mL
MIC ([10]; 1 strain): 16 µg/mL
MIC ([10]; 4 strains, geometric mean): > 125 µg/mL
MIC ([10]; 5 strains, geometric mean): > 125 µg/mL
Blood Level ([11]; 0.5 h): 1800 ng/mL
Blood Level ([11]; 1 h): 1400 ng/mL
AUC [12]: 4400 ng·h/mL
concentration at 0.5 h [12]: 2300 ng/mL
concentration at 2 h [12]: 1600 ng/mL
Blood Level [13]: 4600 ng/mL
MIC [14]: 63 µg/mL
protection of ceforanide and amoxicillin from destruction by β-lactamase-producing bacteria [15]: protected ceforanide and amoxicillin from destruction by β-lactamase-producing bacteria in vitro and in vivo
MIC ([16]; A20927-1, beta-lactamase -): 63 µg/mL
MIC ([16]; A20933, beta-lactamase +): 63 µg/mL
AUC ([17]; AUC): 4400 ng·h/mL
concentration at 0.5 h ([17]; Blood Level): 2300 ng/mL
